Test results published in US20180099031A1, “DIABETES TREATMENT” (BETH ISRAEL DEACONESS MEDICAL CENTER, priority 2013, published 2018).

Test system: New onset diabetic NOD mice
Test: α1 anti-trypsin treatment of new onset diabetic NOD mice, blood glucose levels
Assay type: in vivo
From the text: Female NOD (NOD/LtJx) mice and NOD.SCID (NOD.CB17-Prkdcscid/J) mice were purchased from Jackson Laboratories (Bar Harbor, Me.) at 4 wks of age and maintained under pathogen-free conditions at the Harvard Institutes of Medicine (Boston, Mass.). The Harvard Medical School institutional review board approved all animal studies.
Blood glucose levels of NOD mice were monitored twice weekly with the Accu-Check blood glucose monitor system (Roche, Indianapolis, Ind.). When non-fasting blood glucose levels were in excess of 200 mg/dl on three consecutive measurements a diagnosis of new onset of diabetes was made. Mice with blood glucose levels between 250 to 350 mg/dl were used for the experiment described below. […] The 25% residual beta cell mass is similar to that found in newly diagnosed patients with T1DM.
New onset diabetic NOD mice were divided into two groups and treated with α1 anti-trypsin while simultaneously receiving intense insulin treatment (Group 1) or implantable insulin pellets (Group 2).
For the animals in Group 1, insulin doses were calibrated on the basis of three blood glucose measurements per day. The goal was to maintain blood glucose levels between 100-160 mg/dl. For blood glucose levels in excess of 160 mg/dl, NPH insulin was administered i.p. in doses ranging from 1 to 4 International Units depending upon the magnitude of hyperglycemia. For blood glucose level between 160 and 200 mg/dl, 1 IU was given. For blood glucose levels between 200 and 250 mg/dl, 2 IU of NPH insulin were given. For blood glucose levels between 250 and 300 mg/dl, 2 IU of NPH insulin were given. For blood glucose levels between 300 and 350 mg/dl, 3 IU of NPH insulin were given. For blood glucose levels in excess of 350 mg/dl, 4 IU of NPH insulin were given. Mice with high blood glucose levels in excess of 400 mg/dl for 2 days also received 0.2-0.4 ml warm normal saline subcutaneously in order to treat glycosuria-associated dehydration.
The animals in Group 2, LinBit™ sustained release insulin implants were used for management of hyperglycemia. LinBit™ sustained release insulin implants were purchased from LinShin Canada Inc. The LinBit™ implants (3-mm in length and 2 mm in diameter) were made from an admixture of insulin and micro-recrystallized palmitic acid and were erodible in vivo after being placed subcutaneously. The insulin release rate was about 0.1 U/day/implant for the time period over 2-4 weeks.
In our experiments, one or 2 LinBit™ implants were placed subcutaneously under the mid dorsal skin in newly onset diabetic mice with 3 previous measurements of blood glucose levels >200 mg/dL. The mice were anesthesized with ketamine/xylazine and the hair on the dorsal skin from a spot about 1 cm^2 was clipped using a small scissors with curved tips. […]

## α1 anti-trypsin: Aralast NP, a human α1-proteinase inhibitor derived from pooled human plasma, purchased from Baxter
Group 1: with intense insulin therapy (NPH insulin i.p., three glucose measurements per day), Aralast NP 2 mg i.p. every 3 days, five injections, experiment 60-100 days, FIG. 1
  blood glucose levels: fell to normoglycemic levels shortly after treatment began and remained at normal levels for the entire duration of the experiment
Group 2: with LinBit insulin implants s.c., Aralast NP 2 mg i.p. every 3 days, five injections, FIG. 2
  blood glucose levels shortly after treatment began: fell to normoglycemic levels shortly after treatment began
Glucose levels maintained within normal limits (50-120 mg/dL) by intensive insulin therapy
  effect on diabetic state: curative effect
Hyperglycemic state managed by subcutaneously placed insulin pellets
  effect on diabetic state: less effective
